Data: EP4656640A1, “IRAK4 DEGRADER AND USE THEREOF” (Shanghai Qilu Pharmaceutical Research and Development …, priority 2023, dated 2024)

Target: T1, IRAK4 (Mus musculus, UniProt Q8R4K2)
T1 sequence (Q8R4K2 1-459): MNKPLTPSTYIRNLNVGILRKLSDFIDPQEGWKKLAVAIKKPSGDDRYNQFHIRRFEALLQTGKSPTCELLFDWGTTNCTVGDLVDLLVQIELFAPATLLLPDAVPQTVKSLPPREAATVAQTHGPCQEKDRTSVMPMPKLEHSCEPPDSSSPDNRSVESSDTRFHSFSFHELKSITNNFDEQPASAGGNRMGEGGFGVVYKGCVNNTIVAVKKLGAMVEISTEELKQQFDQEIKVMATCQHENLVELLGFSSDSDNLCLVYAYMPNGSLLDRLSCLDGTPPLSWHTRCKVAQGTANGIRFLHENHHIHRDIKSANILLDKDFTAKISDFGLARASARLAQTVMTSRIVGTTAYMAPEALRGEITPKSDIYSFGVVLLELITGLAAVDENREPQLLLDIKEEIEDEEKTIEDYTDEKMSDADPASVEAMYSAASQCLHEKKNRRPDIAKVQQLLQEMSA
Experiment: In vivo degradation of IRAK4 in mouse spleen, IL-33 model (LC-MS)
Set-up: species or system C57BL/6J mice
Details: Example 22 at 50 mpk, comparable drug concentrations in the spleen, FIG. 2

Cn1c(=O)n(C2CCC(=O)NC2=O)c2cccc(C#CCCN3CCC4(CC3)CC(n3cc(NC(=O)c5cnn6ccc(N7C[C@H]8C[C@@H]7CO8)nc56)c(C(F)F)n3)C4)c21 (stereo partly shown) [Example 22]
degradation effect of IRAK4 in mouse spleen compared with KT-474 at 150 mpk: 2-3 times
